Source: patent US5049547A, “Composition for stimulating integumental melanocytes” (University Patents, Inc., priority 1989, dated 1991)
“And” between values parts separate entries of the source, which are not always exact repeats. Equal entries are not always repeated. Where two headings read alike, the source gives them in different places. Non-standard residues stand in square brackets, D forms with d. Residues, ends and D or L forms follow the SMILES beside them. dPhg = N[C@@H](C(=O)O)c1ccccc1; Nle = CCCC[C@H](N)C(=O)O

What was measured:
frog (Rana pipiens) skin = assay type: cell-based
Description: (§1) Biological effect on in vivo and in vitro melanosome dispersion was examined using the frog (Rana pipiens) and the lizard (Anolis caroliniensis). [Hadley et al., ,Science 213:1025-1027(1981)]; similar examinations were conducted with respect to the duration of its ability to stimulate melanosome dispersion in vitro using the skin bioassay as described in Shimume, Endrochrinology, 54:553-560(1954). The in vitro results are depicted in Table I.

[1] = tested on: lizard (Anolis caroliniensis) skin; experiment: in vitro lizard skin bioassay, melanosome dispersion; assay type: cell-based; details: alpha-MSH = 1.0
Description: as §1

[2] = tested on: TA-98 strain of S. typhimurium; experiment: Ames microbacterial assay; details: spontaneous revertants subtracted
Description: The Ames microbacterial assay was used for these tests which were performed both with and without a microsomal enzyme/NADPH generating system. Briefly, this test measures the number of reverse mutations which occur in special histidine-dependent strains of Salmonella typhimurium. Positives (mutations) are scored as the number of revertant cells which are able to form colonies in a histidine-deficient growth medium after exposure to a mutagenic substance.
All substances were dissolved in sterile 0.9% sodium chloride (without preservatives) to concentrations of 10^-2, 10^-3 and 10^-4 Molar. The TA-98 strain of S. typhimurium was used and experiments were performed with and without exposure to S-9 rat liver microsomal enzymes and an NADPH generating system. This enzyme cocktail can metabolically activate some compounds to mutagenic species. In addition to the melanotropins, doxorybicin (Adriamycin™) was also simultaneously tested. […] It was thus included to act as a positive control. […] For the actual evalution of revertants, the identity of the specific test compounds was blinded.

Row | Compound | Relative Potency Frog (frog (Rana pipiens) skin; in vitro, alpha-MSH = 1.0) | Relative Potency Lizard [1] | other results
1 | CC(=O)N[C@@H](CCC(=O)O)C(=O)N[C@@H](Cc1c[nH]cn1)C(=O)N[C@H](Cc1ccccc1)C(=O)N[C@@H](CCCNC(=N)N)C(=O)N[C@@H](Cc1c[nH]c2ccccc12)C(=O)NCC(=O)N[C@@H](CCCCN)C(N)=O [Ac-[D-Phe^7]-alpha-MSH5-11 -NH2] (Ac-EH[dF]RWGK-NH2) | 0.01 |  | 
2 | CCCC[C@H](NC(C)=O)C(=O)N[C@@H](CCC(=O)O)C(=O)N[C@@H](Cc1c[nH]cn1)C(=O)N[C@@H](C)C(=O)N[C@@H](CCCNC(=N)N)C(=O)N[C@@H](Cc1c[nH]c2ccccc12)C(=O)NCC(=O)N[C@@H](CCCCN)C(N)=O [Ac-[Nle^4 -Ala^7]-alpha-MSH4-11 -NH2] (Ac-[Nle]EHARWGK-NH2) |  |  | Relative Potency Frog (frog (Rana pipiens) skin): 0.02
3 | CCCC[C@H](NC(C)=O)C(=O)N[C@@H](CCC(=O)O)C(=O)N[C@@H](Cc1c[nH]cn1)C(=O)N[C@H](C)C(=O)N[C@@H](CCCNC(=N)N)C(=O)N[C@@H](Cc1c[nH]c2ccccc12)C(=O)NCC(=O)N[C@@H](CCCCN)C(N)=O [Ac-[Nle^4 -D-Ala^7]-alpha-MSH4-11 -NH2] (Ac-[Nle]EH[dA]RWGK-NH2) | 0.000080 | 0.020 | 
4 | CCCC[C@H](NC(C)=O)C(=O)N[C@@H](CCC(=O)O)C(=O)N[C@@H](Cc1c[nH]cn1)C(=O)N[C@@H](Cc1ccccc1)C(=O)N[C@H](CCCNC(=N)N)C(=O)N[C@@H](Cc1c[nH]c2ccccc12)C(=O)NCC(=O)N[C@@H](CCCCN)C(N)=O [Ac-[Nle^4 -D-Arg^8]-alpha-MSH4-11 -NH2] (Ac-[Nle]EHF[dR]WGK-NH2) | 0.000016 | 0.0022 | 
5 | CCCC[C@H](NC(C)=O)C(=O)N[C@@H](CCC(=O)O)C(=O)N[C@@H](Cc1c[nH]cn1)C(=O)N[C@H](Cc1ccccc1)C(=O)N[C@@H](CCCNC(=N)N)C(=O)N[C@H](Cc1c[nH]c2ccccc12)C(N)=O [Ac-[Nle^4 -D-Phe^7 -D-Trp^9]-alpha-MSH4-9 -NH2] (Ac-[Nle]EH[dF]R[dW]-NH2) | 0.03 | 3.8 | 
6 | CCCC[C@H](NC(C)=O)C(=O)N[C@@H](CCC(=O)O)C(=O)N[C@@H](Cc1c[nH]cn1)C(=O)N[C@H](Cc1ccccc1)C(=O)N[C@@H](CCCNC(=N)N)C(=O)N[C@@H](Cc1ccccc1)C(=O)NCC(=O)N[C@@H](CCCCN)C(N)=O [Ac-[Nle^4 -D-Phe^7 -Phe^9]-alpha-MSH4-11 -NH2] (Ac-[Nle]EH[dF]RFGK-NH2) | 0.017 |  | 
7 | CCCC[C@H](NC(C)=O)C(=O)N[C@@H](CCC(=O)O)C(=O)N[C@@H](Cc1c[nH]cn1)C(=O)N[C@H](Cc1ccccc1)C(=O)N[C@@H](CCCNC(=N)N)C(=O)N[C@@H](Cc1c[nH]c2ccccc12)C(=O)NCC(N)=O [Ac-[Nle^4 -D-Phe^7]-alpha-MSH4-10 -NH2] | 0.02 |  | REVERTANTS PER PLATE WITH S-9 ([2]; 10^-2 M): 0; […] PLATE WITHOUT S-9 ([2]; 10^-2 M): 0; REVERTANTS PER PLATE WITH S-9 ([2]; 10^-3 M): 0; […] PLATE WITHOUT S-9 ([2]; 10^-3 M): 0; REVERTANTS PER PLATE WITH S-9 ([2]; 10^-4 M): 0; […] PLATE WITHOUT S-9 ([2]; 10^-4 M): 0
8 | CCCC[C@H](NC(C)=O)C(=O)N[C@@H](CCC(=O)O)C(=O)N[C@@H](Cc1c[nH]cn1)C(=O)N[C@@H](C(=O)N[C@@H](CCCNC(=N)N)C(=O)N[C@@H](Cc1c[nH]c2ccccc12)C(=O)NCC(=O)N[C@@H](CCCCN)C(N)=O)c1ccccc1 [Ac-[Nle^4 -D-Plg^7]-alpha-MSH4-11 -NH2] (Ac-[Nle]EH[dPhg]RWGK-NH2) | 0.0003 | 0.0005 | 
9 | CCCC[C@H](NC(C)=O)C(=O)N[C@@H](CCC(=O)O)C(=O)N[C@@H](Cc1c[nH]cn1)C(=O)N[C@H](Cc1ccc(O)cc1)C(=O)N[C@@H](CCCNC(=N)N)C(=O)N[C@@H](Cc1c[nH]c2ccccc12)C(=O)NCC(=O)N[C@@H](CCCCN)C(N)=O [Ac-[Nle^4 -D-Tyr^7]-alpha-MSH4-11 -NH2] (Ac-[Nle]EH[dY]RWGK-NH2) | 0.0020 and 0.0033 | 1.0 | 
10 | CCCC[C@H](NC(C)=O)C(=O)N[C@@H](CCC(=O)O)C(=O)N[C@@H](Cc1ccccc1)C(=O)N[C@H](Cc1ccccc1)C(=O)N[C@@H](CCCNC(=N)N)C(=O)N[C@@H](Cc1c[nH]c2ccccc12)C(=O)NCC(=O)N[C@@H](CCCCN)C(N)=O [Ac-[Nle^4 -Phe^6 -D-Phe^7]-alpha-MSH4-11 -NH2] (Ac-[Nle]EF[dF]RWGK-NH2) | 0.012 |  | 
11 | CCCC[C@H](NC(C)=O)C(=O)N[C@@H](CCC(=O)O)C(=O)N[C@@H](Cc1c[nH]cn1)C(=O)N[C@@H](Cc1ccc(O)cc1)C(=O)N[C@@H](CCCNC(=N)N)C(=O)N[C@@H](Cc1c[nH]c2ccccc12)C(=O)NCC(=O)N[C@@H](CCCCN)C(N)=O [Ac-[Nle^4 -Tyr^7]-alpha-MSH4-11 -NH2] (Ac-[Nle]EHYRWGK-NH2) |  | 0.0090 | 
12 | CCCC[C@H](NC(C)=O)C(=O)N[C@@H](CCC(=O)O)C(=O)N[C@@H](Cc1c[nH]cn1)C(=O)N[C@@H](Cc1ccccc1)C(=O)N[C@@H](CCCNC(=N)N)C(=O)N[C@@H](Cc1c[nH]c2ccccc12)C(=O)NCC(=O)N[C@@H](CCCCN)C(N)=O [Ac-[Nle^4 ]-alpha-MSH4-11 -NH2] (Ac-[Nle]EHFRWGK-NH2) | 0.0019 |  | 
13 | CCCC[C@H](NC(C)=O)C(=O)N[C@@H](CCC(=O)O)C(=O)N[C@@H](Cc1c[nH]cn1)C(=O)N[C@@H](Cc1ccccc1)C(=O)N[C@@H](CCCNC(=N)N)C(=O)N[C@@H](Cc1c[nH]c2ccccc12)C(N)=O [Ac-[Nle^4]-alpha-MSH4-9 -NH2] (Ac-[Nle]EHFRW-NH2) | 0.0007 | 0.18 | 
14 | CC(=O)N[C@@H](Cc1ccc(O)cc1)C(=O)N[C@@H](CCC(=O)O)C(=O)N[C@@H](Cc1c[nH]cn1)C(=O)N[C@H](Cc1ccccc1)C(=O)N[C@@H](CCCNC(=N)N)C(=O)N[C@@H](Cc1c[nH]c2ccccc12)C(=O)NCC(=O)N[C@@H](CCCCN)C(N)=O [Ac-[Tyr^4 -D-Phe^7]-alpha-MSH4-11 -NH2] (Ac-YEH[dF]RWGK-NH2) | 0.01 |  | 
15 | COc1cccc2c1C(=O)c1c(O)c3c(c(O)c1C2=O)C[C@@](O)(C(=O)CO)C[C@@H]3O[C@H]1C[C@H](N)[C@H](O)[C@H](C)O1 [Adriamycin, Doxorubicin, reference compound] |  |  | […] PLATE WITH S-9 ([2]; 10 µg/ml): 2500; […] PLATE WITHOUT S-9 ([2]; 10 µg/ml): 230; […] PLATE WITH S-9 ([2]; 1.0 g/ml): 100; […] PLATE WITHOUT S-9 ([2]; 1.0 g/ml): 0
16 | Ac-[Nle^4 -D-Phe^7 -D-Arg^8 ]-alpha-MSH4- |  | 0.0022 | 
17 | Ac-[Phe-Gly^7 ]-alpha-MSH4-11 -NH2 | 0.10 |  | 
